The numbers were not newly measured in US8877792B2, “Compositions for increasing solubility of azole drug compounds that are poorly soluble in water” (Dow Pharmaceutical Sciences, Inc., priority 2008, dated 2014), which cites them from elsewhere.

The conditions of the series: background statement, cited from earlier work.

For `Cc1ncc([N+](=O)[O-])n1CCO` [Metronidazole, metronidazole], for the setting “room temperature”, the “aqueous solubility of metronidazole in water” value was “about 0.87 % w/w”. Also, for the setting “solutions that can withstand cold temperatures encountered during shipping”, the “limit of metronidazole concentration for physically stable solutions in water” value is “about 0.7 % w/w”.
